# Source: ChEMBL document CHEMBL4507299, “Data for DCP probe PF-04554878” (2021)
# What was measured:
# [1] = biological target: Alpha-2B adrenergic receptor (Homo sapiens) (UniProt P18089); settings: Compound concentration 10.0 uM
# [2] = biological target: Histamine H2 receptor (Homo sapiens) (UniProt P25021); settings: Compound concentration 10.0 uM
# [3] = biological target: Tyrosine-protein kinase ABL1 (Homo sapiens, UniProt P00519)
# [4] = biological target: Myosin light chain kinase 2, skeletal/cardiac muscle (Homo sapiens) (UniProt Q9H1R3)
# [5] = biological target: Cyclin-dependent kinase 5 (Homo sapiens) (UniProt Q00535)
# Sequence of Cyclin-dependent kinase 5 (Homo sapiens) (Q00535 whole entry, looked up): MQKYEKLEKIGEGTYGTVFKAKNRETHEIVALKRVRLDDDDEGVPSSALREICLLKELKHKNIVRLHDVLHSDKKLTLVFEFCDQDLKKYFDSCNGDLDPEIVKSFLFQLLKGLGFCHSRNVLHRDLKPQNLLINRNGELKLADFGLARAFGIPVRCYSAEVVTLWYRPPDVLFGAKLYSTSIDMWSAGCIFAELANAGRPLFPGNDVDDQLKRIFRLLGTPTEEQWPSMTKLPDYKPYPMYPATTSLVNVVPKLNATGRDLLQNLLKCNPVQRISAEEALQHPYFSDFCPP
# [6] = biological target: Non-receptor tyrosine-protein kinase TYK2 (Homo sapiens) (UniProt P29597)
# [7] = biological target: Serine/threonine-protein kinase 32B (Homo sapiens) (UniProt Q9NY57)
# [8] = biological target: Angiopoietin-1 receptor (Homo sapiens) (UniProt Q02763)
# [9] = biological target: Protein-tyrosine kinase 6 (Homo sapiens) (UniProt Q13882)
# [10] = biological target: Serine/threonine-protein kinase WNK1 (Homo sapiens) (UniProt Q9H4A3)
# [11] = biological target: Serine/threonine-protein kinase OSR1 (Homo sapiens) (UniProt O95747)
# [12] = biological target: Receptor tyrosine-protein kinase erbB-2 (Homo sapiens) (UniProt P04626)
# [13] = biological target: Beta-adrenergic receptor kinase 1 (Homo sapiens) (UniProt P25098)
# [14] = biological target: Non-receptor tyrosine-protein kinase TNK1 (Homo sapiens) (UniProt Q13470)
# [15] = test system: Epidermal growth factor receptor (Homo sapiens), P00533 [G719C]
# [16] = biological target: STE20-like serine/threonine-protein kinase (Homo sapiens) (UniProt Q9H2G2)
# [17] = biological target: Dual specificity mitogen-activated protein kinase kinase 3 (Homo sapiens) (UniProt P46734)
# [18] = biological target: Serine/threonine-protein kinase Nek7 (Homo sapiens) (UniProt Q8TDX7)
# [19] = biological target: T1, Serine/threonine-protein kinase TAO3 (Homo sapiens) (UniProt Q9H2K8)
# T1 sequence (whole entry): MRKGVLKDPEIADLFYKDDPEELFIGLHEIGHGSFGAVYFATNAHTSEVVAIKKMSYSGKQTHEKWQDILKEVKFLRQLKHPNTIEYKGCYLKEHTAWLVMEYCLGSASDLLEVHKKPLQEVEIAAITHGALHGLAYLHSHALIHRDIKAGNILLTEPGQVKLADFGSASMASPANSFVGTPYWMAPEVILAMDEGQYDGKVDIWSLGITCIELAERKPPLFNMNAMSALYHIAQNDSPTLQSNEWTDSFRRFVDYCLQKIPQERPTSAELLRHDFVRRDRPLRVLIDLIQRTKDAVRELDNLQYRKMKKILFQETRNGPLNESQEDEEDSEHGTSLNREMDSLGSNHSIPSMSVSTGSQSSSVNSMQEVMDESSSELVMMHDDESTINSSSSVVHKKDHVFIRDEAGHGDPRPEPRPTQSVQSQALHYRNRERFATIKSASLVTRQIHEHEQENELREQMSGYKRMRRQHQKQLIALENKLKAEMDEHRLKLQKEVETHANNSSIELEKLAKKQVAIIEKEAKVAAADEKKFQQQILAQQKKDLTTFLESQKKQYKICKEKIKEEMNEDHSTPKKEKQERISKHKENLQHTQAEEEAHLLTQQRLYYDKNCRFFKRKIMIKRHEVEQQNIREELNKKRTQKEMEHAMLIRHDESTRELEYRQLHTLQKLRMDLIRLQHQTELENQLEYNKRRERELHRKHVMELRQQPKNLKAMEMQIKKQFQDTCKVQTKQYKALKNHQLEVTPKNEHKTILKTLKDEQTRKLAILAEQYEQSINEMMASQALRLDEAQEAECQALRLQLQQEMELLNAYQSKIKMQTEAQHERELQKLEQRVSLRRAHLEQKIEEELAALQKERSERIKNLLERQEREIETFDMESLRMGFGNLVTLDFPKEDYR
# [20] = biological target: MAP kinase-activated protein kinase 5 (Homo sapiens) (UniProt Q8IW41)
# [21] = biological target: Ephrin type-A receptor 2 (Homo sapiens) (UniProt P29317)
# [22] = biological target: Membrane-associated tyrosine- and threonine-specific cdc2-inhibitory kinase (Homo sapiens) (UniProt Q99640)
# [23] = biological target: BMP-2-inducible protein kinase (Homo sapiens) (UniProt Q9NSY1)
# [24] = test system: Phosphatidylinositol 4,5-bisphosphate 3-kinase catalytic subunit alpha isoform (Homo sapiens), P42336 [M1043I]
# Sequence of Phosphatidylinositol 4,5-bisphosphate 3-kinase catalytic subunit alpha isoform (Homo sapiens), P42336 [M1043I] (P42336 whole entry M1043I, canonical isoform): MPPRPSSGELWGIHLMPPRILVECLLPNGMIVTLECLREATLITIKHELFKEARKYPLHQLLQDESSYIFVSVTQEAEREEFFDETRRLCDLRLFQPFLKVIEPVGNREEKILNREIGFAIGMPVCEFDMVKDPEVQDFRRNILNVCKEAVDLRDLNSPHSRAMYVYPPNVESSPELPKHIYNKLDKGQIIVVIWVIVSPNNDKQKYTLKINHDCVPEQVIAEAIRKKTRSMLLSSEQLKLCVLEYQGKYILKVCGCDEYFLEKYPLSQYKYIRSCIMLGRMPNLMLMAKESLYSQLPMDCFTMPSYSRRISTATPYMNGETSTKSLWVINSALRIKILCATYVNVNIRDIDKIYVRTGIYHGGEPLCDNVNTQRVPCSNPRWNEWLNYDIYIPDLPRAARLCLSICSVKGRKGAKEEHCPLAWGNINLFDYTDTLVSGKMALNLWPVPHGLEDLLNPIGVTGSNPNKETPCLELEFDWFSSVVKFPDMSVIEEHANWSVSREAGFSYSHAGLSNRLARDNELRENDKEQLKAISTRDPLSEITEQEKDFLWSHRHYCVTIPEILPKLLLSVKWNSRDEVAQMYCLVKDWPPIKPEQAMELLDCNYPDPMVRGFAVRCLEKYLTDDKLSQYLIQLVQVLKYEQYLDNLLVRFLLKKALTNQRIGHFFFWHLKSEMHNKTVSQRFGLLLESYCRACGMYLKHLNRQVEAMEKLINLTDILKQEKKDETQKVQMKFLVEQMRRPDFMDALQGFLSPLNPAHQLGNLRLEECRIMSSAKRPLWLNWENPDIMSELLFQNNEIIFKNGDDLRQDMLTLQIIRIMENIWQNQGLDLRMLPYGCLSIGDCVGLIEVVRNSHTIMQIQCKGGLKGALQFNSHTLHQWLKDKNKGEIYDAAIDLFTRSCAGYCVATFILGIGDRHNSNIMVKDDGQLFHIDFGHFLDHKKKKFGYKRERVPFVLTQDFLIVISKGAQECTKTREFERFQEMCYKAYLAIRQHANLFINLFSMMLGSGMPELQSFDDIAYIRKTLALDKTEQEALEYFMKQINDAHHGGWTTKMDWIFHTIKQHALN
# [25] = test system: Tyrosine-protein kinase ABL1 (Homo sapiens), P00519 [E255K]
# Sequence of Tyrosine-protein kinase ABL1 (Homo sapiens), P00519 [E255K] (P00519 whole entry E255K): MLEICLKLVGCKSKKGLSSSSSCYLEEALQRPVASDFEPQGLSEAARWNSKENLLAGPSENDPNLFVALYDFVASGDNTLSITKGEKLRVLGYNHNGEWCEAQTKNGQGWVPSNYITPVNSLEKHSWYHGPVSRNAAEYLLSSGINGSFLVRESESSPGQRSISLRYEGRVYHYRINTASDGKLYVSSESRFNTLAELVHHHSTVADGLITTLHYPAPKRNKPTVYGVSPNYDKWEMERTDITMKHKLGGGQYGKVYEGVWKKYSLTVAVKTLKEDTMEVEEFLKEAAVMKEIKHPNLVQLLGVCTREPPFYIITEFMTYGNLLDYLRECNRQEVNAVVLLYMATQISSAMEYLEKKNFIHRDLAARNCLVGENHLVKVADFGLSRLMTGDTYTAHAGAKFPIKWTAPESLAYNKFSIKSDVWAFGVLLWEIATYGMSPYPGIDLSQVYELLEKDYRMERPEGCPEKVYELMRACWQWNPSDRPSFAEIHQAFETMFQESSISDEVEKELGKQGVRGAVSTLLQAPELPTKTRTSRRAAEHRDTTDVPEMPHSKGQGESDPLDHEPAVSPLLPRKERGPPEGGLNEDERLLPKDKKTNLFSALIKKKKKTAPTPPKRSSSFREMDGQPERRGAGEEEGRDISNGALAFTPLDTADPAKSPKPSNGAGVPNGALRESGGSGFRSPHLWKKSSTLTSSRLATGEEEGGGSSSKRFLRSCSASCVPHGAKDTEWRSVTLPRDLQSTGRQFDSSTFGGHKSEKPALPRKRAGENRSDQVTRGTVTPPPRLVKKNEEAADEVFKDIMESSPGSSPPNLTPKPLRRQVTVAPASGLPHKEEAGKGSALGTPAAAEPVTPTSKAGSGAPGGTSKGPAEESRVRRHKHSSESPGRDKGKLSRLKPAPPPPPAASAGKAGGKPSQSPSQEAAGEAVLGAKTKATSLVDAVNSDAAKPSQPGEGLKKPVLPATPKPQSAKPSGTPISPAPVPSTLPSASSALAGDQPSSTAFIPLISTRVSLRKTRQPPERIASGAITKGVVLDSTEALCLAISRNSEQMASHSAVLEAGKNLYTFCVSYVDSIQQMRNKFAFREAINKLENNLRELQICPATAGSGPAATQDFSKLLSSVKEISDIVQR
# [26] = test system: Tyrosine-protein kinase ABL1 (Homo sapiens), P00519 [F317L]
# [27] = biological target: Serine/threonine-protein kinase Nek5 (Homo sapiens) (UniProt Q6P3R8)
# Sequence of Serine/threonine-protein kinase Nek5 (Homo sapiens) (Q6P3R8 whole entry): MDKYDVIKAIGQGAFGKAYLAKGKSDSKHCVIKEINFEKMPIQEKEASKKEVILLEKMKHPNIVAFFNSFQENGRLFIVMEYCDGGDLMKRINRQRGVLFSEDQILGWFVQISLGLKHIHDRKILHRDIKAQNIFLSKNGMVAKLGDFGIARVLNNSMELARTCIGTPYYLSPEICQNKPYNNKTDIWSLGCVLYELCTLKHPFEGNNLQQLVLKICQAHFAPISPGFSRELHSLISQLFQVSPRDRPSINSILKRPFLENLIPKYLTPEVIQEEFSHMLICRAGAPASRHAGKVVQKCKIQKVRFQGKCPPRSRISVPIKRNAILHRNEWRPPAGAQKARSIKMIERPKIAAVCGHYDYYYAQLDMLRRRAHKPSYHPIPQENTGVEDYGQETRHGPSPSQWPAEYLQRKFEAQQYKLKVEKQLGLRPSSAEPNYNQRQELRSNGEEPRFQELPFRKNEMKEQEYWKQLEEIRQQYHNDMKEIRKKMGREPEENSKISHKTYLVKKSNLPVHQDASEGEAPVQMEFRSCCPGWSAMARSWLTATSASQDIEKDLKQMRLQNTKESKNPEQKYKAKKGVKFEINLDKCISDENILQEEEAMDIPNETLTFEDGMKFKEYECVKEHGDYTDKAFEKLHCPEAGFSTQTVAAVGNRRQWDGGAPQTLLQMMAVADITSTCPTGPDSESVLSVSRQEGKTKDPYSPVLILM
# [28] = biological target: Mitogen-activated protein kinase kinase kinase 6 (Homo sapiens) (UniProt O95382)
# Sequence of Mitogen-activated protein kinase kinase kinase 6 (Homo sapiens) (O95382 whole entry): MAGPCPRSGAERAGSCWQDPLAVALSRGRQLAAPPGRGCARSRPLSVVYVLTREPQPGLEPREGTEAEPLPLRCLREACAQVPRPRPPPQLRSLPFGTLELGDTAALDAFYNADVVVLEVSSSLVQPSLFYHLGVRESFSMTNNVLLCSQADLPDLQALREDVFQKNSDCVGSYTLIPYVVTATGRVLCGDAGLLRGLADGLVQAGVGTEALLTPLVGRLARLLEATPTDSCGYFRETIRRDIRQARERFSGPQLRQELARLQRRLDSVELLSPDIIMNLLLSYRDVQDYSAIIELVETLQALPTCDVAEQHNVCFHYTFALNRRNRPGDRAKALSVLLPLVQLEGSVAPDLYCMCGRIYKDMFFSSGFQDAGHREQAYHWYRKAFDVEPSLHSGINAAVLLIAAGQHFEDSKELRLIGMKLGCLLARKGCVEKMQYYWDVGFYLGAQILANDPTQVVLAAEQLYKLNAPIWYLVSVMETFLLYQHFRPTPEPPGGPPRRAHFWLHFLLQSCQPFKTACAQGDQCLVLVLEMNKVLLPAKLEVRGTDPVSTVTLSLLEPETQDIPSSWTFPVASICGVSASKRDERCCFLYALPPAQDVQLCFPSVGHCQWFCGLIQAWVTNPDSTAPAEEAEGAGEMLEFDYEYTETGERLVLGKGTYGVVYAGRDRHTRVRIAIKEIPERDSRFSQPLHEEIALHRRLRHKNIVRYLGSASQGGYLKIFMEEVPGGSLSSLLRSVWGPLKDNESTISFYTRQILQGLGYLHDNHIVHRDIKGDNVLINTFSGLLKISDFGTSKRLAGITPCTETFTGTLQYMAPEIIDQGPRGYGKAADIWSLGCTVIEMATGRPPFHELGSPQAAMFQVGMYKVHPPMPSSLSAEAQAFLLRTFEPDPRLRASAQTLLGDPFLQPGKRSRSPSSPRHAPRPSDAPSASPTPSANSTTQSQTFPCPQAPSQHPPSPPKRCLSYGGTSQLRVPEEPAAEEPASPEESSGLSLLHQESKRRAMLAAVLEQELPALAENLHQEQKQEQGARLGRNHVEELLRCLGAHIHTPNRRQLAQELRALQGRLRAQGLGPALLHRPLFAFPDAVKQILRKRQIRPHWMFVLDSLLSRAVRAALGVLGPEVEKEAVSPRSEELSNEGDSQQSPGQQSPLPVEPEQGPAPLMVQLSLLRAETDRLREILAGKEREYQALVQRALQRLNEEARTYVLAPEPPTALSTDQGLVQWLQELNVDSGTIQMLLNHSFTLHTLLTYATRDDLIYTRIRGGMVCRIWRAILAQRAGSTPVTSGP
# [29] = biological target: Dual serine/threonine and tyrosine protein kinase (Homo sapiens) (UniProt Q6XUX3)
# [30] = biological target: 5'-AMP-activated protein kinase catalytic subunit alpha-2 (Homo sapiens) (UniProt P54646)
# [31] = biological target: Serine/threonine-protein kinase 33 (Homo sapiens) (UniProt Q9BYT3)
# Sequence of Serine/threonine-protein kinase 33 (Homo sapiens) (Q9BYT3 whole entry, looked up): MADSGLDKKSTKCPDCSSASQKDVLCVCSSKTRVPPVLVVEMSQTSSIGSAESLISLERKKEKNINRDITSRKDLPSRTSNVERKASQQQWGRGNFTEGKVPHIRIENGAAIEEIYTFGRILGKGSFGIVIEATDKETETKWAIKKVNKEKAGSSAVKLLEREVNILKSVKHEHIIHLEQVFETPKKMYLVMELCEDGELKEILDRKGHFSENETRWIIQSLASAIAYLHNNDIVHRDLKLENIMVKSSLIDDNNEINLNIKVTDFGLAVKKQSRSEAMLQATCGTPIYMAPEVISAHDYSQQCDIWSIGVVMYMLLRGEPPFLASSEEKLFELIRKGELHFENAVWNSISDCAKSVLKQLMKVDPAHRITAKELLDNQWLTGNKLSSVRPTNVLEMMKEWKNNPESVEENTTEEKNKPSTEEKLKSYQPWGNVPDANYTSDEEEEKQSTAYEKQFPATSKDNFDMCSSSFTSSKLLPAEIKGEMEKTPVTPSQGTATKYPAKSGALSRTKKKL
# [32] = biological target: TRAF2 and NCK-interacting protein kinase (Homo sapiens) (UniProt Q9UKE5)
# [33] = biological target: Serine/threonine-protein kinase PknB (Mycobacterium tuberculosis) (UniProt P9WI81)
# [34] = Compound concentration 100.0 nM
# [35] = Compound concentration 1000.0 nM
compound,measurement,setting,value
CNC(=O)c1ccc(Nc2ncc(C(F)(F)F)c(NCc3nccnc3N(C)S(C)(=O)=O)n2)cc1 [DEFACTINIB],inhibition,[1],5.76%
same,inhibition,[2],30.2%
same,residual activity,[3]; [34],88%
same,residual activity,[4]; [34],63%
same,residual activity,[5]; [34],81%
same,residual activity,[6]; [34],87%
same,residual activity,[7]; [34],97%
same,residual activity,[8]; [34],69%
same,residual activity,[9]; [34],100%
same,residual activity,[10]; [34],100%
same,residual activity,[11]; [34],100%
same,residual activity,[12]; [34],100%
same,residual activity,[13]; [34],89%
same,residual activity,[14]; [34],100%
same,residual activity,[15]; [34],94%
same,residual activity,[16]; [34],53%
same,residual activity,[17]; [34],48%
same,residual activity,[18]; [34],70%
same,residual activity,[19]; [34],26%
same,residual activity,[20]; [34],76%
same,residual activity,[21]; [34],86%
same,residual activity,[22]; [34],94%
same,residual activity,[23]; [34],81%
same,residual activity,[24]; [34],100%
same,residual activity,[25]; [34],100%
same,residual activity,[26]; [34],93%
same,residual activity,[27]; [34],100%
same,residual activity,[28]; [34],90%
same,residual activity,[29]; [34],87%
same,residual activity,[30]; [34],100%
same,residual activity,[31]; [34],68%
same,residual activity,[32]; [34],65%
same,residual activity,[33]; [34],69%
CN(c1ccnc(CNc2nc(Nc3ccc4c(c3)CC(=O)N4)ncc2C(F)(F)F)n1)S(C)(=O)=O [PF-00911705],inhibition,[1],-4.21%
same,inhibition,[2],1.75%
same,residual activity,[3]; [35],77%
same,residual activity,[4]; [35],53%
same,residual activity,[5]; [35],79%
same,residual activity,[6]; [35],59%
same,residual activity,[7]; [35],100%
same,residual activity,[8]; [35],50%
same,residual activity,[9]; [35],100%
same,residual activity,[10]; [35],87%
same,residual activity,[11]; [35],86%
same,residual activity,[12]; [35],100%
same,residual activity,[13]; [35],31%
same,residual activity,[14]; [35],65%
same,residual activity,[15]; [35],86%
same,residual activity,[16]; [35],41%
same,residual activity,[17]; [35],58%
same,residual activity,[18]; [35],68%
same,residual activity,[19]; [35],12%
same,residual activity,[20]; [35],94%
same,residual activity,[21]; [35],80%
same,residual activity,[22]; [35],100%
same,residual activity,[23]; [35],2.3%
same,residual activity,[24]; [35],95%
same,residual activity,[25]; [35],34%
same,residual activity,[26]; [35],84%
same,residual activity,[27]; [35],63%
same,residual activity,[28]; [35],73%
same,residual activity,[29]; [35],53%
same,residual activity,[30]; [35],87%
same,residual activity,[31]; [35],15%
same,residual activity,[32]; [35],77%
same,residual activity,[33]; [35],80%
